Experiments:
Type in all cases: cell-based
[1] = system: Mouse colon cancer CT26 cells; experiment: Induction of immunogenic cell death targets by Crizotinib and IN10018 in CT26 cells (Example 7); conditions: CT26, 48 hours; IN10018 5 μM, Crizotinib 3 μM
Procedure: CT26 cells were cultured in monolayer in vitro, and the culture conditions were: RPMI-1640 medium with 10% fetal bovine serum, 37° C. and 5% CO2. Trypsin was used for routine digestion and passage treatment two or three times a week. When the cells were in exponential growth period and the adherent confluence reached 80%-90%, the cells were collected and plated.
CT26 cells were digested with trypsin, then collected and counted. According to the counting results, the cells were diluted with RPMI-1640+10% FBS, and the dilution concentration was 50,000 cells per ml. Then, the cells were plated on 24-well culture plates, and 1 ml of cell suspension (50,000 cells) was laid in each well. After plating, the cells were cultured in 37° C. and 5% CO2 incubator. […]
After the cells were washed twice with flow buffer (DPBS+2% FBS), the cells in each group were divided into two parts on average, one of which was added with 0.5 μl of AF647 anti-Calreticulin antibody in each well, then mixed well, and incubated in the dark for 20 minutes at 4° C. […] The cells were cultured at room temperature in the dark for 15 minutes, and then analyzed by flow cytometry.
Data analysis: After the assay, the cell positive rate was analyzed by Flowjo(V10) software.

[2] = system: Mouse colon cancer CT26 cells; experiment: Proliferation of CT26 cells, CCK8, Lurbinectedin with or without IN10018 (Example 1); conditions: 72 hours, combination group: 6 μM IN10018 added to each well
Procedure: Mouse colon cancer CT26 cells (Insitute of Biochemistry and Cell Biology) were cultured with RPMI-1640 (Shanghai Basalmedia, classification number: L210KJ, batch number: F210916)+10% FBS (Gibco, classification number: 10099-141c, batch number: 2158737cp) and passaged twice. When the cells were in good condition, the culture solution was placed in a 96-well plate with 3000 cells/well. After the cells were spread for 24 hours, a culture medium containing Lurbinectedin (DC chemicals, classification number: DC12502, batch number: DC1250203) was added. 10 drug action concentrations were set, wherein the first concentration was 0.1 μM, which was serially diluted 4 times, and the last concentration was a control with a drug concentration of 0. Each drug concentration was set in triplicate. At the same time, another group of cells was established with the same drug concentration as the above method. The difference was that 6 μM IN10018 was added to each well. The drugs were mixed and the mixture was cultured in a 5% CO2 incubator at 37° C. for 72 hours.
After 72 hours of drug action, the cells were observed under a microscope, and 10 μl of CCK8 detection reagent (Cellorlab, classification number: CX001M, batch number: 2571100) was added to each well. […] Then the plate was read with a microplate reader OD450 ([…]).

[3] = system: Mouse colon cancer CT26 cells; experiment: CT26 cells with IN10018 and Lurbinectedin: microscope and flow cytometry for CRT / Annexin V (Example 2); conditions: CT26, 48 hours; IN10018 5 μM, Lurbinectedin 0.00142 μM
Procedure: Mouse colon cancer CT26 cells (Insitute of Biochemistry and Cell Biology) were cultured with RPMI-1640 (Shanghai Basalmedia, classification number: L210KJ, batch number: F210916)+10% FBS (Gibco, classification number: 10099-141c, batch number: 2158737cp) and passaged twice. When the cells were in good condition, the culture solution was placed in a 24-well plate. After the cells were spread for 24 hours, four groups were set up, wherein the first group was a control group, and the culture medium was added; the second group was IN10018 with a concentration of 5 μM; the third group was Lurbinectedin (DC chemicals, classification number: DC12502, batch number: DC1250203) with a concentration of 0.00142 μM; and the fourth group was IN10018 (5 μM) combined with Lurbinectedin (0.00142 μM). The drugs were mixed and the mixture was cultured in a 5% CO2 incubator at 37° C. for 48 hours.
After 48 hours of drug action, the cells were observed under a microscope and photographed, and the photos were kept. Then the cells were collected, subjected to flow analysis, and washed twice with flow buffer (PBS+2% FBS). 0.5 μl of AF647 anti-Calreticulin antibody (abcam, classification number: ab196159, batch number: CR33676773) was added to each well and fully mixed. […] The mixture was cultured at room temperature in the dark for 15 minutes, and then analyzed by flow cytometry.

| Structure (SMILES) | cell state under a microscope (cell death; cell viability) [1] | IC50 [2] | cell state under a microscope [3] |
| --- | --- | --- | --- |
| C[C@@H](Oc1cc(-c2cnn(C3CCNCC3)c2)cnc1N)c1c(Cl)ccc(F)c1Cl [Crizotinib] | cell death was obvious |  |  |
| COc1ccc2[nH]c3c(c2c1)CCN[C@]31CS[C@@H]2c3c(OC(C)=O)c(C)c4c(c3[C@H](COC1=O)N1[C@@H]2[C@H]2c3c(cc(C)c(OC)c3O)C[C@@H]([C@@H]1O)N2C)OCO4 [Lurbinectedin] |  | 0.71 nM | poor |
